From patent US7754740B2, “1H-indole-3-carboxylic acid derivatives and their use as PPAR agonists” (Merck Patent GmbH, priority 2005, dated 2010)

Molecular target: T1, chimeric protein PPARγ-Gal4 (Homo sapiens, UniProt P37231)
T1 construct: Gal4 (yeast transcription factor); expressed in transfected cells; host or cells: CV-1 cells (monkey kidney cells)
T1 sequence (P37231 238-503 limits assumed): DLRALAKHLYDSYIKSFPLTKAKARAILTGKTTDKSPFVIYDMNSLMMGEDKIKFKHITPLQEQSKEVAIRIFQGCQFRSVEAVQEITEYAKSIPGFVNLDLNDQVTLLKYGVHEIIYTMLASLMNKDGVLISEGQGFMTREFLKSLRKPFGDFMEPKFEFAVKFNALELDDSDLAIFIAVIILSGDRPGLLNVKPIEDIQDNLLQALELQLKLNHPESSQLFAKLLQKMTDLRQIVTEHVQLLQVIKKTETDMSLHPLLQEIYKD
Test: PPARγ-Gal4 transactivation (luciferase reporter) test in cotransfected CV-1 cells
Type: cell-based
Description: The measurement of the PPAR activation was performed according to a technique described by Lehmann et al. (J. Biol. Chem., 270, (1995),
CV-1 cells (monkey kidney cells) are cotransfected with an expression vector for the chimeric protein PPARγ-Gal4 and with a “reporter” plasmid that allows expression of the luciferase gene placed under the control of a promoter comprising Gal4 response elements.
The cells are seeded in 96-well microplates and cotransfected using a commercial reagent with the reporter plasmid (pG5-tk-pGL3) and the expression vector for the chimeric protein (PPARγ-Gal4). After incubation for 4 hours, whole culture medium (comprising 10% foetal calf serum) is added to the wells. After 24 hours, the medium is removed and replaced with whole medium comprising the test products. The products are left in contact with the cells for 18 hours. The cells are then lysed and the luciferase activity is measured using a luminometer. A PPARγ activation factor can then be calculated by means of the activation of the expression of the reporter gene induced by the product (relative to the control cells that have received no product).
In the absence of the PPARγ ligand binding domain (vector expressing Gal4 alone), the luciferase activity measured in the presence of an agonist is zero.
The following transactivation result was obtained with a concentration of 50 μM on PPARγ.
The transactivation test using the expression of a chimeric protein Gal-4-PPARγ makes it possible to determine also whether an agonist functions as a “full” agonist or as a “partial” agonist in this system.
An agonist is “partial” in this system if it induces a weaker response, i.e. it has lower efficacy, than rosiglitazone, which is a “full” agonist. In concrete terms, in our system, the transactivation obtained at the plateau with a partial agonist will be between 20% and 50% of the maximum response (efficacy) at the plateau of rosiglitazone.

| Compound | Activation factor of the chimeric protein PPARγ-Gal4 (50 μM, CV-1 cells (monkey kidney cells), 18 hours contact, luciferase reporter, relative to control cells without product (= 1)) | Concentration to reach the maximum stimulation of the PPARγ chimeric protein (Gal4-PPARγ transactivation test, CV-1 cells) [µM] | Emax (transactivation at the plateau as % of the maximum response (efficacy) of rosiglitazone, CV-1 cells, read-out: Maximum stimulation of the PPARγ chimeric protein obtained with rosiglitazone) [%] |
| --- | --- | --- | --- |
| CCOC(=O)c1c(C)n(Cc2ccccc2)c2cc(-c3cccnc3)c(OCCCC(=O)O)cc12 [Example 4, Ethyl-benzyl-5-(3-carboxypropoxy)-2-methyl-6-pyrid-3-yl-1H-indole-3-carboxylate] | 17 |  |  |
| CCOC(=O)c1c(C)n(CCOC)c2cc(CCCC3CCCC3)c(OCCCC(=O)O)cc12 [Example 31, ethyl 5-(3-carboxypropoxy)-6-(3-cyclopentylpropyl)-1-(2-methoxyethyl)-2-methyl-1H-indole-3-carboxylate] |  | 1 | 24 |
